From article PMC9914855, “UHPLC-MS Phenolic Fingerprinting, Aorta Endothelium Relaxation Effect, Antioxidant, and Enzyme Inhibition Activities of Azara dentata Ruiz & Pav Berries” (Foods, 2023)

Tests used:
[1] = target: tyrosinase (Agaricus bisporus, UniProt C7FF04); parameters: method as in PMID 36552522; conditions: cited from earlier work
[2] = target: acetylcholinesterase (AChE); parameters: method as in PMID 36552522; conditions: cited from earlier work
[3] = target: butyrylcholinesterase (BChE); parameters: method as in PMID 36552522; conditions: cited from earlier work
[4] = test system: human erythrocytes; assay: Lipid peroxidation in human erythrocytes; type: cell-based; conditions: at 100 µg/mL
Procedure: The lipid peroxidation in human erythrocytes (LP) assay was performed as described in a previous study with some modifications. Human blood cells (red) were used. After washing, the cells were suspended in phosphate-buffered saline (hemoglobin density of 1 mM). The final cell suspension with different concentrations of the test compounds was incubated and dissolved in DMSO and PBS for 10 min at 37 °C. After incubation, the cells were added to tert-butylhydroperoxide (1 mM) for 15 min at 37 °C. After this, the lipid peroxidation was obtained via the TBARs’ formation. The evaluation was performed in quadruplicate, and the results are shown as the inhibition percentage (IP) of lipid peroxidation in human erythrocytes (IPLP) contrasted to the control of catechin at 100 µg/mL and reported as the average ± SD. Healthy volunteer donors gave their informed consent for inclusion before participating in the study. The protocol assay was conducted in accordance with the Declaration of Helsinki and is included in the approved project by CICIT-CA-UNSJ-Argentina (Project code 80020190100277SJ, N 0591-20-R-UNSJ), referred to as an ethical and environmental safeguard and to preserve the hygiene and safety conditions in the activities to be carried out in laboratories.

[5] = target: T1, BChE (Homo sapiens, UniProt P06276); conditions: cited from earlier work
T1 construct: purchased Merck, Darmstadt, Germany

[6] = target: lipase; conditions: cited from earlier work
[7] = target: T2, AChE (Homo sapiens, UniProt P22303); conditions: cited from earlier work
T2 construct: purchased Merck, Darmstadt, Germany

[8] = target: amylase; conditions: cited from earlier work
[9] = parameters: method as in PMID 36552522; conditions: read-out: GI50 (cytotoxic); cited from earlier work

T1 sequence (P06276 29-602, species assumed): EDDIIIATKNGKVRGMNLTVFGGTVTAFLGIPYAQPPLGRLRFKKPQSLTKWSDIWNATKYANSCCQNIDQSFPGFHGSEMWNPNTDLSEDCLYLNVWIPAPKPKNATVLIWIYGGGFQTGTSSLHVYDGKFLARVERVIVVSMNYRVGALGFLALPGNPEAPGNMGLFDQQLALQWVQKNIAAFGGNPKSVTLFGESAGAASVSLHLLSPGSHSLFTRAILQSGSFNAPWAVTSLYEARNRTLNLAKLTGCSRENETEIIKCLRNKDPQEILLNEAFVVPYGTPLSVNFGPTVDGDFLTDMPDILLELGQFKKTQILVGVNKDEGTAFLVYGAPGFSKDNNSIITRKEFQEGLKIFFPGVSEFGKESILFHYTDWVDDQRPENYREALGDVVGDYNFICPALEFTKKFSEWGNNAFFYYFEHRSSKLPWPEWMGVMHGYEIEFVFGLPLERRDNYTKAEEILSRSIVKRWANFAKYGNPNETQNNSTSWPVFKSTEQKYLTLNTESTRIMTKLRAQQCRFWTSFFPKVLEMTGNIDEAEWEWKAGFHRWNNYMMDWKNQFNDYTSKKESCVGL
T2 sequence (P22303 32-614): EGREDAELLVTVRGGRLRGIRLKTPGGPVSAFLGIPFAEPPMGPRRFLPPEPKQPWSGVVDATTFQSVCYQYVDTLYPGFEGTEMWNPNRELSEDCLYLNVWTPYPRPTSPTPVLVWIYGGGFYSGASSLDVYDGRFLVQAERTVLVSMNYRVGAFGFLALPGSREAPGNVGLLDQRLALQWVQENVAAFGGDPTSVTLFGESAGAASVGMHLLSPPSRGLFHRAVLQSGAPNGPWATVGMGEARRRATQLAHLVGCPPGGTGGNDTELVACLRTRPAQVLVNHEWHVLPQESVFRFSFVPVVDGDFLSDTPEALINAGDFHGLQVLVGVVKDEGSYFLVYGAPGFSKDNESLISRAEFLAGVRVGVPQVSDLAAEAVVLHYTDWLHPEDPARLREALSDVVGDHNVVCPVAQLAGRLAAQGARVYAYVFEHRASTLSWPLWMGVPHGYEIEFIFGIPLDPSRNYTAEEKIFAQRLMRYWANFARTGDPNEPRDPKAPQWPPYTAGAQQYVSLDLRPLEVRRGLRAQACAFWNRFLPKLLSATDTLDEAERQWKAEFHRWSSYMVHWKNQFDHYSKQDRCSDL
Sequence of tyrosinase (C7FF04 1-392): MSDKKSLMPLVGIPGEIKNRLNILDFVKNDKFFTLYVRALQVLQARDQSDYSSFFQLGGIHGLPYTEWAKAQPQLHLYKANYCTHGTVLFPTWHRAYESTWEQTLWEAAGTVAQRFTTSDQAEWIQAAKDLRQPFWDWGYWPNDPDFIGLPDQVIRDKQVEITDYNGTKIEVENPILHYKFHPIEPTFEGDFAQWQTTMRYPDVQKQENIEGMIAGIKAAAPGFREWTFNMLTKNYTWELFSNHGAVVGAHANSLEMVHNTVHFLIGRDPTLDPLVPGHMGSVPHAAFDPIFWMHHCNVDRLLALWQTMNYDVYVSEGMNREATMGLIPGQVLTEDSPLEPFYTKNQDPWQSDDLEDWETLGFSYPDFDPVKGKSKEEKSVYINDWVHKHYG

## 2-nor-1,2-secolycoserone [2-nor-1,2-secolycoserone coumarin]
[1]
  tyrosinase IC50: 103.43 ± 16.86 µg/mL
[2]
  AChE inhibition: 1.21 ± 0.03 µg/mL
[3]
  BChE IC50: 11.23 ± 0.02 µg/mL

## O.Oc1cc(O)c2c(c1)O[C@H](c1ccc(O)c(O)c1)[C@@H](O)C2 [catechin]
[4]
  IPLP (inhibition percentage of lipid peroxidation in human erythrocytes): 70%

## O=C(/C=C/c1ccc(O)c(O)c1)O[C@@H]1C[C@](O)(C(=O)O)C[C@@H](O)[C@H]1O [chlorogenic acid, Chlorogenic acid]
[5]
  IC50: 17.8 µM
[6]
  lipase IC50: 647 µg/mL
[7]
  IC50: 22.6 µM
[8]
  amylase IC50: 498 ± 13 µg/mL

## N.N.[Cl][Pt][Cl] [cisplatin, reference compound]
[9]
  GI50: 4.9 ± 0.2 µM

## CC1=C(CC/C(C)=C/CO)[C@]2(C)CCCC(C)(C)C2CC1 (stereo partly drawn) [ent-labda-8,13-E-diene-15-ol]
[9]
  GI50: 4.5 ± 0.1 µM
